Laboratory results: US4732977A, “Carbapenem antibiotics” (priority 1986, dated 1988)
Values after ≈ are worked out from the molar mass of the structure shown. Where a name gives a salt, the structure may show the parent alone. Read-outs that look alike come from different tables or passages of the source.

Columns and labels:
P. aeruginosa A-20481 = experiment: Protective effect in intramuscular treatment of infected mice; assay type: in vivo; details: Pseudomonas aeruginosa, A20481, im, i.m. 0 and 2 h postinfection, challenge 5.4 × 10^4 organisms, * = historical data, read-out: PD50/Treatment
H. influenzae A21518 = experiment: M.I.C., tube dilution; assay type: cell-based; details: Haemophilus influenzae, overnight incubation at 37° C., Nutrient Broth
E. coli A20341-1 = experiment: M.I.C., tube dilution; assay type: cell-based; details: Escherichia coli, A203411; 10^-4; read-out: MIC
P. aeruginosa A-9843A [1] = experiment: M.I.C., tube dilution; assay type: cell-based; details: Pseudomonas aeruginosa, A9843A, overnight incubation at 37° C., Nutrient Broth
P. vulgaris A21559 = experiment: M.I.C., tube dilution; assay type: cell-based; details: Proteus vulgaris, A21559, overnight incubation at 37° C., Nutrient Broth; read-out: MIC
P. mirabilis A-9900 [2] = experiment: Protective effect in intramuscular treatment of infected mice; assay type: in vivo; details: Proteus mirabilis
Method: (§1) The PD50 (dose in mg/kg required to give protection to 50% of the infected mice) is indicated.
with drugs 0 and 2 hours postinfection.
(§2) The PD50 (dose in mg/kg) required to give protection to 50% of the infected mice is indicated.

S. aureus A-9606 = experiment: as above; assay type: in vivo; details: Staphylococcus aureus, read-out: PD50/treatment
Method: as §1
with drugs 0 and 2 hours postinfection.
as §2

in vivo = details: mouse
H. influenzae A-9833 = experiment: M.I.C., tube dilution; assay type: cell-based; details: Haemophilus influenzae, A9833; overnight incubation at 37° C., Nutrient Broth
S. aureus A-9537 = experiment: M.I.C., tube dilution; assay type: cell-based; details: Staphylococcus aureus
B. fragilis A22862 = experiment: M.I.C., tube dilution; assay type: cell-based; details: Bacteroides fragilis, overnight incubation at 37° C., Nutrient Broth
[3] = Urinary recovery after intramuscular administration to mice; assay type: in vivo; details: mouse, urine, im, 20 mg/kg, 20 mg/kg i.m.
Excerpt: | a single test; 4 mice per compound.

P. aeruginosa A-9843a [4] = experiment: animal or person; assay type: in vivo, mice; details: Pseudomonas aeruginosa, A9843A, im
Method: as §1
with drugs 0 and 2 hours postinfection.
as §2

P. aeruginosa A-20599 = experiment: Protective effect in intramuscular treatment of infected mice; assay type: in vivo; details: Pseudomonas aeruginosa, A20599, im, i.m. 0 and 2 h postinfection, challenge 1.4 × 10^5 organisms, * = historical data, read-out: PD50/Treatment
S. faecalis A20688 = experiment: M.I.C., tube dilution; assay type: cell-based; details: Enterococcus faecalis, A20688, overnight incubation at 37° C., Nutrient Broth; read-out: MIC
E. coli A-15119 = experiment: Protective effect in intramuscular treatment of infected mice; assay type: in vivo; details: Escherichia coli
Method: as §1
with drugs 0 and 2 hours postinfection.
as §2

B. fragilis A22053 = experiment: M.I.C., tube dilution; assay type: cell-based; details: Bacteroides fragilis, overnight incubation at 37° C., Nutrient Broth
P. aeruginosa A21213 = experiment: M.I.C., tube dilution; assay type: cell-based; details: Pseudomonas aeruginosa, A21213, overnight incubation at 37° C., Nutrient Broth; read-out: MIC
S. faecalis A-20688 = experiment: Protective effect in intramuscular treatment of infected mice; assay type: in vivo; details: Enterococcus faecalis, A20688, im, i.m. 0 and 2 h postinfection, challenge 2.3 × 10^8 organisms, * = historical data, read-out: PD50/Treatment
[5] = Toxicity after intracranial administration to mice; details: mouse, in vivo
[6] = Blood levels in mice after intramuscular administration;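 note: compounds dissolved in 0.1 M phosphate buffer at pH 7, data from one experiment using four mice for each compound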
Excerpt: Compounds were solubilized in 0.1 M phosphate buffer pH 7.
a single test; 4 mice used per compound.
Compounds were solubilized in 0.1 M phosphate buffer, pH 7.
on a single test; 4 mice per compound.

B. fragilis A22863 = experiment: M.I.C., tube dilution; assay type: cell-based; details: Bacteroides fragilis, overnight incubation at 37° C., Nutrient Broth
E. coli A15119 = experiment: M.I.C., tube dilution; assay type: cell-based; details: Escherichia coli, A15119, 10^-4 dil.
P. morganii A15153 = experiment: M.I.C., tube dilution; assay type: cell-based; details: Morganella morganii, A15153
P. aeruginosa A24081 = experiment: Protective effect in intramuscular treatment of infected mice; assay type: in vivo; details: Pseudomonas aeruginosa, read-out: PD50/treatment
Excerpt: as §2

K. pneumoniae A9664 = experiment: as above; assay type: in vivo; details: Klebsiella pneumoniae, im, K. pneumoniae A9664, read-out: PD50/treatment
Excerpt: as §2

[7] = tested on: S. aureus A15097 (Meth-res.); experiment: M.I.C., tube dilution; assay type: cell-based; details: Staphylococcus aureus, overnight incubation at 37° C.
B. fragilis A22696 = experiment: M.I.C., tube dilution; assay type: cell-based; details: Bacteroides fragilis, overnight incubation at 37° C., Nutrient Broth
S. marcescens A20019 = experiment: M.I.C., tube dilution; assay type: cell-based; details: Serratia marcescens, A20019; overnight incubation at 37° C., Nutrient Broth; read-out: MIC
E. cloacae A-9656 = experiment: M.I.C., tube dilution; assay type: cell-based; details: Enterobacter cloacae, A9656, overnight incubation at 37° C., Nutrient Broth; read-out: MIC
K. pneumoniae A20468 = experiment: M.I.C., tube dilution; assay type: cell-based; details: Klebsiella pneumoniae, A20468, overnight incubation at 37° C., Nutrient Broth; read-out: MIC
P. mirabilis A-9900 [8] = experiment: M.I.C., tube dilution; assay type: cell-based; details: Proteus mirabilis, A9900, overnight incubation at 37° C., Nutrient Broth; read-out: MIC
S. pyogenes A-9604 = experiment: M.I.C., tube dilution; assay type: cell-based; details: Streptococcus pyogenes, A9604; overnight incubation at 37° C., Nutrient Broth; read-out: MIC
E. cloacae A-9659 = experiment: M.I.C., tube dilution; assay type: cell-based; details: Enterobacter cloacae, A9659; overnight incubation at 37° C., Nutrient Broth; read-out: MIC
K. pneumoniae A-9664 = experiment: M.I.C., tube dilution; assay type: cell-based; details: Klebsiella pneumoniae, A9664, overnight incubation at 37° C., Nutrient Broth; read-out: MIC
P. rettgeri A22424 = experiment: M.I.C., tube dilution; assay type: cell-based; details: Providencia rettgeri, A22424; overnight incubation at 37° C., Nutrient Broth; read-out: MIC
[9] = im, mice, i.m., P. mirabilis A9900, read-out: PD50/treatment
[10] = im, mice, i.m., S. aureus A9606
[11] = in Mus musculus, read-out: PD50/treatment
[12] = im, mice, i.m., E. coli A15119, read-out: PD50/treatment

`C[C@@H](O)[C@H]1C(=O)N2C(C(=O)[O-])=C(SCc3cc[n+](C)cc3)C[C@H]12` [Example 1, 1-Methyl-4-[2-carboxy-6α-[1(R)-hydroxyethyl]-7-oxo-1-azabicyclo[3.2.0]hept-2-en-3-thiomethyl]pyridinium hydroxide inner salt] gave an ED50 (P. aeruginosa A-20481) of 0.63 mg/kg, an MIC (H. influenzae A21518) of 16 µg/mL and an MIC (E. coli A20341-1) of 0.03 µg/mL. It also gave an MIC (P. aeruginosa A-9843A [1]) of 4 µg/mL, an MIC (P. vulgaris A21559) of 0.13 µg/mL and an ED50 (P. mirabilis A-9900 [2]; A9900, im, read-out: PD50/Treatment) of 3.3 mg/kg. For the same compound, the ED50 (S. aureus A-9606; A9606, im) was 0.09 mg/kg, the NOAEL (in vivo) was 5 mg/kg and the MIC (H. influenzae A-9833) was 16 µg/mL. The MIC (S. aureus A-9537; A9537, overnight incubation at 37° C., Nutrient Broth) was 0.13 µg/mL, the MIC (S. aureus A-9537; A9537, +50% serum) was 0.03 µg/mL and the MIC (B. fragilis A22862) was 0.03 µg/mL. For the same compound, the dose excreted at 3 h ([3]; 0-3 hours) was 26.1%, the dose excreted at 24 h ([3]; 0-24 hours) was 26.7 ± 6.7% and the dose excreted at 6 h ([3]; 3-6 hours) was 0.5%. The dose excreted at 24 h ([3]; 6-24 hours) was 0.1%, the ED50 (P. aeruginosa A-9843a [4]; mice, i.m. 0 and 2 h postinfection, challenge 5.5 × 10^4 organisms, * = historical data, read-out: PD50/Treatment) was 0.3 mg/kg and the ED50 (P. aeruginosa A-20599) was 0.7 mg/kg. It also gave an MIC (S. faecalis A20688) of 0.5 µg/mL, an ED50 (E. coli A-15119; A15119, im, 3.5 h, read-out: PD50/Treatment) of 0.6 mg/kg and an MIC (B. fragilis A22053) of 0.03 µg/mL. For the same compound, the MIC (P. aeruginosa A21213) was 1 µg/mL, the ED50 (S. faecalis A-20688) was 3.3 mg/kg and the LD50 [5] was 14 mg/kg. For the same compound, the AUC ([6]; mice, 20 mg/kg i.m. (table 9)) was 6300 ng·h/mL, the T1/2 ([6]; mice, 20 mg/kg i.m. (table 9)) was 10 min and the AUC ([6]; mouse, blood, im, 20 mg/kg) was 6300 ng·h/mL. For the same compound, the Cmax ([6]; mouse, blood, im, 20 mg/kg) was 14000 ng/mL, the half-life ([6]; mouse, in vivo, im, 20 mg/kg) was 10 min and the MIC (B. fragilis A22863) was 0.03 µg/mL. The MIC (E. coli A15119) was 0.06 µg/mL and the MIC (P. morganii A15153) was 0.13 µg/mL.

`C[C@@H](O)[C@H]1C(=O)N2C(C(=O)[O-])=C(SCc3ccc[n+](C)c3)C[C@H]12` [Example 3, 3-(N-Methylpyridine-3-yl-methanethio)-6α-[1-(R)-hydroxyethyl]-7-oxo-1-azabicyclo(3.2.0)hept-2-ene-2-carboxylate] showed an MIC (H. influenzae A21518) of 2 µg/mL (≈ 5.98 µM), an ED50 (P. aeruginosa A24081; im, mice, i.m., P. aeruginosa A24081) of 0.8 mg/kg and an ED50 (K. pneumoniae A9664) of 3 mg/kg. It also gave an MIC (P. vulgaris A21559) of 0.016 µg/mL (≈ 0.0478 µM), an ED50 (P. mirabilis A-9900 [2]; [9]) of 2 mg/kg and an ED50 (S. aureus A-9606; [10]) of 0.07 mg/kg. It also gave an MIC [7] of 4 µg/mL (≈ 12 µM), an MIC (H. influenzae A-9833) of 2 µg/mL (≈ 5.98 µM) and an ED50 (P. aeruginosa A-9843a [4]; [11]) of 0.5 mg/kg. The MIC (B. fragilis A22696) was 0.5 µg/mL (≈ 1.5 µM), the MIC (S. faecalis A20688) was 0.5 µg/mL (≈ 1.5 µM) and the ED50 (E. coli A-15119; [12]) was 1 mg/kg. The MIC (P. aeruginosa A21213) was 0.5 µg/mL (≈ 1.5 µM), the AUC ([6]; mouse, blood, im, 20 mg/kg) was 6900 ng·h/mL and the Cmax ([6]; mouse, blood, im, 20 mg/kg) was 14500 ng/mL. For the same compound, the half-life ([6]; mouse, blood, im, 20 mg/kg) was 10 min.

With `C[C@@H](O)[C@H]1C(=O)N2C(C(=O)[O-])=C(SCc3cccc[n+]3C)C[C@H]12` [Example 4, 3-(N-Methylpyridine-2-yl-methanethio)-6α-[1-(R)-hydroxyethyl]-7-oxo-1-azabicyclo(3.2.0)hept-2-ene-2-carboxylate] the MIC (H. influenzae A21518) was 2 µg/mL (≈ 5.98 µM), the MIC (S. marcescens A20019) was 0.03 µg/mL (≈ 0.0897 µM) and the MIC (E. cloacae A-9656) was 0.06 µg/mL (≈ 0.179 µM). The ED50 (P. aeruginosa A24081; A24081, im) was 0.2 mg/kg, the MIC (K. pneumoniae A20468) was 0.03 µg/mL (≈ 0.0897 µM) and the ED50 (K. pneumoniae A9664) was 3 mg/kg. It also gave an MIC (P. vulgaris A21559) of 0.016 µg/mL (≈ 0.0478 µM), an MIC (P. mirabilis A-9900 [8]) of 0.06 µg/mL (≈ 0.179 µM) and an MIC (S. pyogenes A-9604) of 0.001 µg/mL (≈ 0.00299 µM). The ED50 (P. mirabilis A-9900 [2]; [9]) was 4 mg/kg, the ED50 (S. aureus A-9606; [10]) was 0.1 mg/kg and the MIC [7] was 4 µg/mL (≈ 12 µM). The MIC (H. influenzae A-9833) was 2 µg/mL (≈ 5.98 µM), the MIC (S. aureus A-9537; A9537, +50% serum, read-out: MIC) was 0.03 µg/mL (≈ 0.0897 µM) and the MIC (B. fragilis A22862) was 0.06 µg/mL (≈ 0.179 µM). The ED50 (P. aeruginosa A-9843a [4]; [11]) was 0.2 mg/kg, the MIC (B. fragilis A22696) was 0.5 µg/mL (≈ 1.5 µM) and the MIC (E. cloacae A-9659) was 0.03 µg/mL (≈ 0.0897 µM). It also gave an MIC (S. faecalis A20688) of 0.5 µg/mL (≈ 1.5 µM), an ED50 (E. coli A-15119; [12]) of 0.4 mg/kg and an MIC (P. aeruginosa A21213) of 0.13 µg/mL (≈ 0.389 µM). It also gave an AUC ([6]; mouse, blood, im, 20 mg/kg) of 7700 ng·h/mL, a Cmax ([6]; mouse, blood, im, 20 mg/kg) of 15500 ng/mL and a half-life ([6]; mouse, blood, im, 20 mg/kg) of 11 min. For the same compound, the MIC (K. pneumoniae A-9664) was 0.03 µg/mL (≈ 0.0897 µM) and the MIC (P. rettgeri A22424) was 0.13 µg/mL (≈ 0.389 µM).
